Legend:
[1] = target: T1, AR-VP16 (Homo sapiens, UniProt P10275); assay: AR-VP16 DNA Binding Assay, agonist mode (HepG2 cells); assay type: cell-based; conditions: Emax >20x DMSO control = agonist
T1 sequence (P10275 560-920 limits assumed): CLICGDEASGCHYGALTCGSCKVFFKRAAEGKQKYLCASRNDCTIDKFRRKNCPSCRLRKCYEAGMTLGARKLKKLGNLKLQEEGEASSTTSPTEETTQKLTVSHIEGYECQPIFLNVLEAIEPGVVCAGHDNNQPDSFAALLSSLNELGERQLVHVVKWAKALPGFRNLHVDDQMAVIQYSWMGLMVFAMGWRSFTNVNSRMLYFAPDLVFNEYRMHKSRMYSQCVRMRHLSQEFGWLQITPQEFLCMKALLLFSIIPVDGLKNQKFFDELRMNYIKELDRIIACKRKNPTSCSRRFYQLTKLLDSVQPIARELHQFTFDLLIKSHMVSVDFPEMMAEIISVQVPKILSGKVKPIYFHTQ

[2] = target: T1, AR-VP16; assay: AR-VP16 DNA Binding Assay, antagonist mode (HepG2 cells, 0.1 nM R1881); assay type: cell-based
In short: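 HepG2 cells transiently transfected with AR-VP16 (Lipofectin), incubated overnight, then treated with compound in RPMI with charcoal-stripped serum. Antagonist mode adds R1881 at 0.1 nM final. Cells lysed after 48 h incubation for read-out.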

| Compound | ARVP16 DNA Binding Assay (Agonist mode): Agonist? [1] | IC50 [2] |
| --- | --- | --- |
| N#Cc1ncc(N2C(=O)C3(CCC3)N(c3ccc(C(=O)NCCCN4CCCC4)c(F)c3)C2=S)cc1C(F)(F)F [Compound 237, 4-(7-(6-Cyano-5-(trifluoromethyl)pyridin-3-yl)-8-oxo-6-thioxo-5,7-diazaspiro[3.4]octan-5-yl)-2-fluoro-N-(3-(pyrrolidin-1-yl)propyl)benzamide] | No (Agonist defined as a compound whose Emax in the ARVP16 DNA Binding Assay (Agonist mode) is >20x DMSO control) | < 1 µM |
| N#Cc1ncc(N2C(=O)C3(CCC3)N(c3ccc(-c4ccccn4)cc3)C2=S)cc1C(F)(F)F [Compound 16, 5-(8-Oxo-5-(4-(pyridin-2-yl)phenyl)-6-thioxo-5,7-diazaspiro[3.4]octan-7-yl)-3-(trifluoromethyl)picolinonitrile] | No (Agonist defined as a compound whose Emax in the ARVP16 DNA Binding Assay (Agonist mode) is >20x DMSO control) | < 1 µM |
| CNC(=O)c1ccc(N2C(=S)N(c3cnc(C#N)c(C)c3)C(=O)C23CCC3)cc1OC [Compound 107, 4-(7-(6-Cyano-5-methylpyridin-3-yl)-8-oxo-6-thioxo-5,7-diazaspiro[3.4]octan-5-yl)-2-methoxy-N-methylbenzamide] | No (Agonist defined as a compound whose Emax in the ARVP16 DNA Binding Assay (Agonist mode) is >20x DMSO control) | < 1 µM |
| N#Cc1ncc(N2C(=O)C3(CCC3)N(c3ccc(C(=O)NCCc4ccccc4)c(F)c3)C2=S)cc1C(F)(F)F [Compound 257, 4-(7-(6-Cyano-5-(trifluoromethyl)pyridin-3-yl)-8-oxo-6-thioxo-5,7-diazaspiro[3.4]octan-5-yl)-2-fluoro-N-phenethylbenzamide] | No (Agonist defined as a compound whose Emax in the ARVP16 DNA Binding Assay (Agonist mode) is >20x DMSO control) | < 1 µM |
| N#Cc1ncc(N2C(=O)C3(CCC3)N(c3ccc(F)c(OCCc4cccnc4)c3)C2=S)cc1C(F)(F)F [Compound 159, 5-(5-(4-Fluoro-3-(2-(pyridin-3-yl)ethoxy)phenyl)-8-oxo-6-thioxo-5,7-diazaspiro[3.4]octan-7-yl)-3-(trifluoromethyl)picolinonitrile] | No (Agonist defined as a compound whose Emax in the ARVP16 DNA Binding Assay (Agonist mode) is >20x DMSO control) | > 1 µM |
| COCCCCOc1ccc(N2C(=S)N(c3cnc(C#N)c(C(F)(F)F)c3)C(=O)C23CCC3)cc1F [Compound 133, 5-(5-(3-Fluoro-4-(4-methoxybutoxy)phenyl)-8-oxo-6-thioxo-5,7-diazaspiro[3.4]octan-7-yl)-3-(trifluoromethyl)picolinonitrile] | No (Agonist defined as a compound whose Emax in the ARVP16 DNA Binding Assay (Agonist mode) is >20x DMSO control) | < 1 µM |
| Cc1cc(N2C(=O)C3(CCC3)N(c3ccc(C(=O)NCc4ccc(F)cc4)c(F)c3)C2=S)cnc1C#N [Compound 293, 4-(7-(6-Cyano-5-methylpyridin-3-yl)-8-oxo-6-thioxo-5,7-diazaspiro[3.4]octan-5-yl)-2-fluoro-N-(4-fluorobenzyl)benzamide] | No (Agonist defined as a compound whose Emax in the ARVP16 DNA Binding Assay (Agonist mode) is >20x DMSO control) | < 1 µM |
| N#Cc1ccccc1N1C(=S)N(c2cnc(C#N)c(C(F)(F)F)c2)C(=O)C12CCC2 [Compound 10, 5-(5-(2-Cyanophenyl)-8-oxo-6-thioxo-5,7-diazaspiro[3.4]octan-7-yl)-3-(trifluoromethyl)picolinonitrile] | No (Agonist defined as a compound whose Emax in the ARVP16 DNA Binding Assay (Agonist mode) is >20x DMSO control) | > 1 µM |
| N#Cc1ncc(N2C(=O)C3(CCC3)N(c3ccc(C(=O)Nc4ccncc4)c(F)c3)C2=S)cc1C(F)(F)F [Compound 263, 4-(7-(6-Cyano-5-(trifluoromethyl)pyridin-3-yl)-8-oxo-6-thioxo-5,7-diazaspiro[3.4]octan-5-yl)-2-fluoro-N-(pyridin-4-yl)benzamide] | Yes (Agonist defined as a compound whose Emax in the ARVP16 DNA Binding Assay (Agonist mode) is >20x DMSO control) | < 1 µM |
| N#Cc1ncc(N2C(=O)C3(CCC3)N(c3ccc(OCCC[S+]([O-])CCCC(F)(F)C(F)(F)F)c(F)c3)C2=S)cc1C(F)(F)F (stereo not shown) [Compound 154, 5-(5-(3-Fluoro-4-(3-((4,4,5,5,5-pentafluoropentyl)sulfinyl)propoxy)phenyl)-8-oxo-6-thioxo-5,7-diazaspiro[3.4]octan-7-yl)-3-(trifluoromethyl)picolinonitrile] | No (Agonist defined as a compound whose Emax in the ARVP16 DNA Binding Assay (Agonist mode) is >20x DMSO control) | < 1 µM |
| N#Cc1ncc(N2C(=O)C3(CCC3)N(c3ccc(CCCC(=O)O)cc3)C2=S)cc1C(F)(F)F [Compound 227, 4-(4-(7-(6-cyano-5-(trifluoromethyl)pyridin-3-yl)-8-oxo-6-thioxo-5,7-diazaspiro[3.4]octan-5-yl)phenyl)butanoic acid] | No (Agonist defined as a compound whose Emax in the ARVP16 DNA Binding Assay (Agonist mode) is >20x DMSO control) | > 1 µM |
| N#Cc1ncc(N2C(=O)C3(CCC3)N(c3ccc(C(=O)NCc4ccc(Cl)cc4)c(F)c3)C2=S)cc1C(F)(F)F [Compound 289, N-(4-Chlorobenzyl)-4-(7-(6-cyano-5-(trifluoromethyl)pyridin-3-yl)-8-oxo-6-thioxo-5,7-diazaspiro[3.4]octan-5-yl)-2-fluorobenzamide] | No (Agonist defined as a compound whose Emax in the ARVP16 DNA Binding Assay (Agonist mode) is >20x DMSO control) | < 1 µM |
| CN1CCC(Oc2ccc(N3C(=S)N(c4cnc(C#N)c(C(F)(F)F)c4)C(=O)C34CCC4)c(F)c2)CC1 [Compound 190, 5-(5-(2-Fluoro-4-((1-methylpiperidin-4-yl)oxy)phenyl)-8-oxo-6-thioxo-5,7-diazaspiro[3.4]octan-7-yl)-3-(trifluoromethyl)picolinonitrile] | No (Agonist defined as a compound whose Emax in the ARVP16 DNA Binding Assay (Agonist mode) is >20x DMSO control) | < 1 µM |
| N#Cc1ncc(N2C(=O)C3(CCC3)N(c3ccc(C(=O)NCc4cnccn4)c(F)c3)C2=S)cc1C(F)(F)F [Compound 290, 4-(7-(6-Cyano-5-(trifluoromethyl)pyridin-3-yl)-8-oxo-6-thioxo-5,7-diazaspiro[3.4]octan-5-yl)-2-fluoro-N-(pyrazin-2-ylmethyl)benzamide] | No (Agonist defined as a compound whose Emax in the ARVP16 DNA Binding Assay (Agonist mode) is >20x DMSO control) | < 1 µM |
| Cc1cc(N2C(=O)C3(CCC3)N(c3ccc(O)c(F)c3)C2=S)cnc1C#N [Compound 54, 5-(5-(3-Fluoro-4-hydroxyphenyl)-8-oxo-6-thioxo-5,7-diazaspiro[3.4]octan-7-yl)-3-methylpicolinonitrile] | No (Agonist defined as a compound whose Emax in the ARVP16 DNA Binding Assay (Agonist mode) is >20x DMSO control) | > 1 µM |
| Cc1cc(N2C(=O)C3(CCC3)N(c3ccc(OCCN4CCN(C)CC4)cc3)C2=S)cnc1C#N [Compound 200, 3-Methyl-5-(5-(4-(2-(4-methylpiperazin-1-yl)ethoxy)phenyl)-8-oxo-6-thioxo-5,7-diazaspiro[3.4]octan-7-yl)picolinonitrile] | Yes (Agonist defined as a compound whose Emax in the ARVP16 DNA Binding Assay (Agonist mode) is >20x DMSO control) | < 1 µM |
| COCCOc1ccc(N2C(=S)N(c3cnc(C#N)c(C)c3)C(=O)C23CCC3)cc1F [Compound 168, 5-(5-(3-Fluoro-4-(2-methoxyethoxy)phenyl)-8-oxo-6-thioxo-5,7-diazaspiro[3.4]octan-7-yl)-3-methylpicolinonitrile] | No (Agonist defined as a compound whose Emax in the ARVP16 DNA Binding Assay (Agonist mode) is >20x DMSO control) | < 1 µM |
| Cc1cc(N2C(=O)C3(CCC3)N(c3ccc(C(=O)Nc4cccc(Cl)c4)c(F)c3)C2=S)cnc1C#N [Compound 295, N-(3-Chlorophenyl)-4-(7-(6-cyano-5-methylpyridin-3-yl)-8-oxo-6-thioxo-5,7-diazaspiro[3.4]octan-5-yl)-2-fluorobenzamide] | No (Agonist defined as a compound whose Emax in the ARVP16 DNA Binding Assay (Agonist mode) is >20x DMSO control) | < 1 µM |
| N#Cc1ncc(N2C(=O)C3(CCC3)N(c3ccc(OC4CCOCC4)cc3)C2=S)cc1C(F)(F)F [Compound 198, 5-(8-Oxo-5-(4-((tetrahydro-2H-pyran-4-yl)oxy)phenyl)-6-thioxo-5,7-diazaspiro[3.4]octan-7-yl)-3-(trifluoromethyl)picolinonitrile] | No (Agonist defined as a compound whose Emax in the ARVP16 DNA Binding Assay (Agonist mode) is >20x DMSO control) | < 1 µM |
| N#Cc1ncc(N2C(=O)C3(CCC3)N(c3ccc(F)c(OCCN4CCOCC4)c3)C2=S)cc1C(F)(F)F [Compound 164, 5-(5-(4-Fluoro-3-(2-morpholinoethoxy)phenyl)-8-oxo-6-thioxo-5,7-diazaspiro[3.4]octan-7-yl)-3-(trifluoromethyl)picolinonitrile] | No (Agonist defined as a compound whose Emax in the ARVP16 DNA Binding Assay (Agonist mode) is >20x DMSO control) | > 1 µM |
